{"source": "patent US20080318880A1", "about": "“Neoadjuvant treatment of Breast Cancer” (The University of Manitoba, priority 2002, published 2008)", "system": "inflammatory or T3 to T4 breast cancer", "test": "Phase II clinical trial of neoadjuvant DPPE plus anthracycline/taxane chemotherapy", "type": "in vivo, human", "method": "In the neoadjuvant treatment of inflammatory or T3 to T4 breast cancer, the diphenyl compound preferably is used in an amount of about 3 to about 10 mg/kg of patient, administered intravenously over a period of about 30 to about 90 minutes prior to administration of the chemotherapeutic agents and continuing for the period of administration of the chemotherapy agent. In the specific Phase II clinical trial described herein, there was employed 6 mg/kg of DPPE in the form of its hydrochloride salt, administered intravenously as an aqueous solution thereof over 80 minutes, with the last twenty minutes being accompanied by infusion of the chemotherapeutic agents, followed by the intravenous administration of an aqueous solution at a dose of 2.5 mg/kg of DPPE for 180 minutes accompanied by the infusion of Taxol® or for 60 minutes accompanied by the infusion of Taxotere®. The chemotherapy agents which are employed herein preferably are used in a total amount of 75 to about 225 mg/M^2 of patient consistent with the identity of the chemotherapy agent. The chemotherapeutic agents may be administered in an amount of about 50 to about 60 mg/M^2 of patient for doxorubicin or epirubicin, about 175 to about 225 mg/M^2 of Taxol® and about 75 to about 100 mg/M^2 of Taxotere®. In the specific Phase II clinical trial described herein, there was employed 50 mg/M^2 of doxorubicin or epirubicin, and 175 mg/M^2 of Taxol® or 75 mg/M^2 of Taxotere®, administered over the last 20 minutes of infusion of the DPPE solution and over a further 180 minutes for Taxol® or 60 minutes for Taxotere®, accompanied by infusion of a 2.5 mg/kg of DPPE solution. As noted above, patients with inflammatory breast cancer or T3 to T4 breast cancer are subjected to a number of cycles of chemotherapy at predetermined intervals to reduce the size of the tumor to an operable size. The number of cycles for each patient is generally about 5 to about 8 cycles, with about 21 to about 28 days between each cycle. In the Phase II clinical trial, patients were subjected to 6 cycles at time intervals of 21 days. A Phase II clinical trial was carried out in which patients (N=8) with inflammatory (N=7) and T3 to T4 (N=1) breast cancer were treated with a combination of DPPE and epirubicin (EPI)/Taxol® (N=5), a combination of DPPE and doxorubicin (DOX)/Taxol® (N=2) and DPPE and a combination of DPPE and epirubicin/Taxotere® (N=1). DPPE was administered at a dose of […] over 80 minutes with a combination of epirubicin or doxorubicin at a dose of 50 mg/M^2 and Taxol® at a dose of 175 mg/M^2 or Taxotere® at a dose of 75 mg/M^2 over the last 20 minutes and during a further 180 minutes for Taxol® or 60 minutes for Taxotere®, at a dose of 2.5 mg/kg. The treatment was repeated at 21 day intervals for 6 cycles. The eight patients with inflammatory or T3 to T4 breast cancer had no previous chemo- or radiotherapy. When the chemotherapy cycles were complete, the cancerous tissue was removed and the patients observed. The results obtained are shown in Table I. In this Table, the abbreviation TTP stands for time to progression and the abbreviation OS stands for overall survival. […] This patient remains disease-free at 55+ months.", "key": {"[1]": {"settings": "8 patients pooled: 5 DPPE/EPI/TAXOL, 2 DPPE/DOX/TAXOL, 1 DPPE/EPI/TAXOTERE"}, "[2]": {"settings": "number of patients of 8, first figure of cell, same regimens"}, "[3]": {"settings": "number of patients of 8, second figure of cell, marked *, same regimens"}}, "note": "“And” between values parts separate entries of the source, which are not always exact repeats. Equal values may be shown once."}
{"compound": "CCN(CC)CCOc1ccc(Cc2ccccc2)cc1", "note": "[DPPE, N,N-diethyl-2-[4-(phenylmethyl)-phenoxy]ethanamine]", "values": [{"measurement": "OS (overall survival), median", "setting": "[1]", "value": "43+ mos."}, {"measurement": "TTP (time to progression), median", "setting": "[1]", "value": 21, "unit": "mos."}, {"measurement": "overall outcome of trial", "setting": "DPPE along with doxorubicin/epirubicin and Taxol/Taxotere", "value": "effective neoadjuvant treatment which lead to long term survival post surgery"}, {"measurement": "Response CR", "setting": "number of patients of 8, first figure of cell (not marked as pathological criteria), DPPE 6 mg/M^2 over 80 min + epirubicin or doxorubicin 50 mg/M^2 + Taxol 175 mg/M^2 or Taxotere 75 mg/M^2, 6 cycles at 21 day intervals", "value": 4}, {"measurement": "Response NR", "setting": "[2]", "value": 1}, {"measurement": "Response PR", "setting": "[2]", "value": 3}, {"measurement": "Response CR, pathological criteria", "setting": "number of patients of 8, second figure of cell, marked * (pathological criteria), same regimens", "value": 2}, {"measurement": "Response NR, pathological criteria", "setting": "[3]", "value": 2}, {"measurement": "Response PR, pathological criteria", "setting": "[3]", "value": 4}, {"measurement": "response of individual patient", "setting": "third patient, only high-grade cells on cytology", "value": "clinical/pathological complete remission"}, {"measurement": "disease-free time of individual patient", "setting": "third patient, with complete remission", "value": "≥ 55", "unit": "months"}, {"measurement": "high-grade tumor component post-surgery", "setting": "two long-term survivors with mixed high-grade tumors pre-treatment", "value": "no high-grade component post-surgery"}, {"measurement": "survival of individual long-term survivors", "setting": "two patients with mixed high-grade tumors pre-treatment", "value": "≥ 45 months and ≥ 53 months"}]}
